Results as given in the kinase profiling compilation of Christmann-Franck et al. (2016).

Columns and labels:
Assay in all cases: radiometric filter-binding kinase assay, Kinase HotSpot
Conditions in all cases: compound 0.5 µM; ATP 10 µM
[1] = biological target: CLK4 (human) (UniProt Q9HAZ1)
[2] = biological target: DMPK (human) (UniProt Q09013)
[3] = biological target: PLK3 (human) (UniProt Q9H4B4)
[4] = biological target: PAK6 (human) (UniProt Q9NQU5)
[5] = biological target: TXK (human) (UniProt P42681)
Sequence of TXK (human) (P42681 whole entry, looked up): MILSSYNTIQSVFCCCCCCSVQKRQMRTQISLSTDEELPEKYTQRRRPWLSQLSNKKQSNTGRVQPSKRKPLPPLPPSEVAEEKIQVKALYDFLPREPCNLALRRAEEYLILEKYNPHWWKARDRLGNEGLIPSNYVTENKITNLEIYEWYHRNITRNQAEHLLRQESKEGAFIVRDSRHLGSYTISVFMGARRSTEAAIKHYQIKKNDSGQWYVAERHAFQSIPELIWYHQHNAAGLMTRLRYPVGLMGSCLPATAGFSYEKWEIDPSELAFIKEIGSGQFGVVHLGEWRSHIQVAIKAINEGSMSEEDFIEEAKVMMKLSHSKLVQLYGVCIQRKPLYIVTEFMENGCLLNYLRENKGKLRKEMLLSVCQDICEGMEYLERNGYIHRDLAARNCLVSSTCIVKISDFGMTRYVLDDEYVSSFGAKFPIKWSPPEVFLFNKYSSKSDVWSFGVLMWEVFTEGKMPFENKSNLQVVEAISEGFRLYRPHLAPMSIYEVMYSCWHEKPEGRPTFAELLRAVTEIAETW

[6] = biological target: CAMK2B (human) (UniProt Q13554)
[7] = biological target: PRKCB2 (human) (UniProt P05771)
[8] = biological target: ITK (human) (UniProt Q08881)
[9] = biological target: MST4 (human) (UniProt Q9P289)
Sequence of MST4 (human) (Q9P289 whole entry, looked up): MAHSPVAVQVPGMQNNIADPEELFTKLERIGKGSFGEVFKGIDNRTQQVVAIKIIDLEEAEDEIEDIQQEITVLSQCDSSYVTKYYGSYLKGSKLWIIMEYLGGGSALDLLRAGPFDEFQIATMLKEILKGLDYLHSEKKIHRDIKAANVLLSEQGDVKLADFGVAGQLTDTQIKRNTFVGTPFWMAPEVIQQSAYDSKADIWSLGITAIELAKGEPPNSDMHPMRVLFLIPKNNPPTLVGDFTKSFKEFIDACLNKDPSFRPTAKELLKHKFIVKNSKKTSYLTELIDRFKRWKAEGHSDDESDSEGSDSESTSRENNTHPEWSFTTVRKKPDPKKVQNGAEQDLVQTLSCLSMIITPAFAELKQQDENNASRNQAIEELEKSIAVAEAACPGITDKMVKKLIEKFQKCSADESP

[10] = biological target: CSNK1A1 (human) (UniProt P48729)
[11] = biological target: DYRK1B (human) (UniProt Q9Y463)
[12] = biological target: PIM1 (human) (UniProt P11309)
Sequence of PIM1 (human) (P11309 whole entry, looked up): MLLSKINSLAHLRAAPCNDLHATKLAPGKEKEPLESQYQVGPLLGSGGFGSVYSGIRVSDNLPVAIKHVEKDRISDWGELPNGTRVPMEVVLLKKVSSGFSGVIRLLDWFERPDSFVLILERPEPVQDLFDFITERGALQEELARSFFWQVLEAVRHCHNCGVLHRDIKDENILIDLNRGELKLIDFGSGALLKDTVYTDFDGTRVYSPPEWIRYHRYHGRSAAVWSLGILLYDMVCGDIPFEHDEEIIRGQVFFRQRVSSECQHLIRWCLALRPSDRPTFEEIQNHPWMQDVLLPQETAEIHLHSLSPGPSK

[13] = biological target: SYK (human) (UniProt P43405)
[14] = biological target: MAPK1 (human) (UniProt P28482)
[15] = biological target: STK4 (human) (UniProt Q13043)
[16] = biological target: CAMK2A (human) (UniProt Q9UQM7)
[17] = biological target: MAP3K8 (human) (UniProt P41279)
Sequence of MAP3K8 (human) (P41279 whole entry, looked up): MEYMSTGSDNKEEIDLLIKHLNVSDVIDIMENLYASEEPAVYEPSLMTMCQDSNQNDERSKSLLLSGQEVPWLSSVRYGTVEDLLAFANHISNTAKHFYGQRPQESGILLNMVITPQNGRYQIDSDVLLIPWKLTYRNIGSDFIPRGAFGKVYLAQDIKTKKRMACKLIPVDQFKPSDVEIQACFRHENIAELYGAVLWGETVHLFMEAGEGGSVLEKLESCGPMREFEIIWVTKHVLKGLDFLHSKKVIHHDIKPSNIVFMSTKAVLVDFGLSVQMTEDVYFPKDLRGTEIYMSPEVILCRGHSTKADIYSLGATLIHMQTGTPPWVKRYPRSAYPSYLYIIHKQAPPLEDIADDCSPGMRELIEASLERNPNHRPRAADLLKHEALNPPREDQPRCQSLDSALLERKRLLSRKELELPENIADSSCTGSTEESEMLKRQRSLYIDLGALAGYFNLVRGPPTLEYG

[18] = biological target: TAOK3 (human) (UniProt Q9H2K8)
[19] = biological target: RPS6KA1 KD1 KD2 (human) (UniProt Q15418)
[20] = biological target: CSNK1E (human) (UniProt P49674)
[21] = biological target: STK33 (human) (UniProt Q9BYT3)
Sequence of STK33 (human) (Q9BYT3 whole entry, looked up): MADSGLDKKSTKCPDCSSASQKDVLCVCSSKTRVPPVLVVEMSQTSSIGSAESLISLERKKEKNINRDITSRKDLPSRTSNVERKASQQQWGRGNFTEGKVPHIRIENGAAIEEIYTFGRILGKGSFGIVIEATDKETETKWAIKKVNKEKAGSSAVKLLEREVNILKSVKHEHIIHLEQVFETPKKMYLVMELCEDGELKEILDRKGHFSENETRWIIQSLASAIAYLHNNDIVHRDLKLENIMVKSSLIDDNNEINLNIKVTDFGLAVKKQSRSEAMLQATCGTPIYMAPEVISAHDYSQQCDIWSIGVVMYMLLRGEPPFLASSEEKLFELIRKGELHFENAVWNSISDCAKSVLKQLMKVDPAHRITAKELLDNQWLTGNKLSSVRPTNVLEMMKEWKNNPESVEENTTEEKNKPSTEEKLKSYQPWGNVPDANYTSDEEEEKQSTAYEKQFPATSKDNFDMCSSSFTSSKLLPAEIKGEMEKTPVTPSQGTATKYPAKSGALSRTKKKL

[22] = biological target: OXSR1 (human) (UniProt O95747)
[23] = biological target: JAK2 JH1 JH2 (human) (UniProt O60674)
[24] = biological target: RAF1 (human) (UniProt P04049)
[25] = biological target: GRK5 (human) (UniProt P34947)
[26] = biological target: SGK2 (human) (UniProt Q9HBY8)
[27] = biological target: RPS6KA4 KD2 (human) (UniProt O75676)
[28] = biological target: PRKCZ (human) (UniProt Q05513)
[29] = biological target: NUAK1 (human) (UniProt O60285)
[30] = biological target: MUSK (human) (UniProt O15146)
[31] = biological target: PTK6 (human) (UniProt Q13882)
[32] = biological target: FLT1 (human) (UniProt P17948)
[33] = biological target: RPS6KB1 (human) (UniProt P23443)
[34] = biological target: KDR (human) (UniProt P35968)
[35] = biological target: RPS6KA2 KD1 KD2 (human) (UniProt Q15349)
[36] = biological target: ERBB2 (human) (UniProt P04626)
[37] = biological target: NEK2 (human) (UniProt P51955)
Sequence of NEK2 (human) (P51955 whole entry, looked up): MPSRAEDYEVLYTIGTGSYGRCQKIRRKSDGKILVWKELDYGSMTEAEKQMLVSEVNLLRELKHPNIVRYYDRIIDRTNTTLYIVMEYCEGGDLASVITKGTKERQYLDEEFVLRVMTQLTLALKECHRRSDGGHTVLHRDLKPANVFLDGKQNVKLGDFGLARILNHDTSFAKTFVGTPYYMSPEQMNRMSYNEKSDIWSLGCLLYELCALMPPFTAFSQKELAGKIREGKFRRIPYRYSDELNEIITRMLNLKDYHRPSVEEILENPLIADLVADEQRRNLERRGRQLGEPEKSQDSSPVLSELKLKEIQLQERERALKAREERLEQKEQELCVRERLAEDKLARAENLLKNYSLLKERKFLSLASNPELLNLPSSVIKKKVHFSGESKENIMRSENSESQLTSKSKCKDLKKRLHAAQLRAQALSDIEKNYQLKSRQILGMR

[38] = biological target: PDPK1 (human) (UniProt O15530)
[39] = biological target: MAP4K5 (human) (UniProt Q9Y4K4)
[40] = biological target: CDK3 CCNE1 (human) (UniProt Q00526+P24864)
Sequence of CDK3 CCNE1 (human) (P24864 whole entry, looked up): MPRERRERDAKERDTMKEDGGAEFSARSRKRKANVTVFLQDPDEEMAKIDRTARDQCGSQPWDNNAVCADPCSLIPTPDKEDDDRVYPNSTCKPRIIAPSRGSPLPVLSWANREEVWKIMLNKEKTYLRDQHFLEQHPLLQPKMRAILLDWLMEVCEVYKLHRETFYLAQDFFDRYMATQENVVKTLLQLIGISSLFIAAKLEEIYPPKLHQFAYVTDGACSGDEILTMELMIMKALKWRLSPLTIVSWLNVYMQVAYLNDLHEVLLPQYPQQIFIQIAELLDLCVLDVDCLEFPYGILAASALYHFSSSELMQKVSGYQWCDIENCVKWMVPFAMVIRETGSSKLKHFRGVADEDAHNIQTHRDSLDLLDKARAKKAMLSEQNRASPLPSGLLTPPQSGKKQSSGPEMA
Sequence of CDK3 CCNE1 (human) (Q00526 whole entry, looked up): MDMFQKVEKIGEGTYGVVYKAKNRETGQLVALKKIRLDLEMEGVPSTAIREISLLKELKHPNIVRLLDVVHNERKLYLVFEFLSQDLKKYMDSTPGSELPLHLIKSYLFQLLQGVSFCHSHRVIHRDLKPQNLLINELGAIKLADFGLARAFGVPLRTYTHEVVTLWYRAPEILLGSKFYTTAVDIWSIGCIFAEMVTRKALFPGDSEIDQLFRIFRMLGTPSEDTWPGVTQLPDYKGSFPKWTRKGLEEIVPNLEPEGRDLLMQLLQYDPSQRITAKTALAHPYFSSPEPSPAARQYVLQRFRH

[41] = biological target: TSSK1B (human) (UniProt Q9BXA7)
[42] = biological target: BRSK1 (human) (UniProt Q8TDC3)
Sequence of BRSK1 (human) (Q8TDC3 whole entry, looked up): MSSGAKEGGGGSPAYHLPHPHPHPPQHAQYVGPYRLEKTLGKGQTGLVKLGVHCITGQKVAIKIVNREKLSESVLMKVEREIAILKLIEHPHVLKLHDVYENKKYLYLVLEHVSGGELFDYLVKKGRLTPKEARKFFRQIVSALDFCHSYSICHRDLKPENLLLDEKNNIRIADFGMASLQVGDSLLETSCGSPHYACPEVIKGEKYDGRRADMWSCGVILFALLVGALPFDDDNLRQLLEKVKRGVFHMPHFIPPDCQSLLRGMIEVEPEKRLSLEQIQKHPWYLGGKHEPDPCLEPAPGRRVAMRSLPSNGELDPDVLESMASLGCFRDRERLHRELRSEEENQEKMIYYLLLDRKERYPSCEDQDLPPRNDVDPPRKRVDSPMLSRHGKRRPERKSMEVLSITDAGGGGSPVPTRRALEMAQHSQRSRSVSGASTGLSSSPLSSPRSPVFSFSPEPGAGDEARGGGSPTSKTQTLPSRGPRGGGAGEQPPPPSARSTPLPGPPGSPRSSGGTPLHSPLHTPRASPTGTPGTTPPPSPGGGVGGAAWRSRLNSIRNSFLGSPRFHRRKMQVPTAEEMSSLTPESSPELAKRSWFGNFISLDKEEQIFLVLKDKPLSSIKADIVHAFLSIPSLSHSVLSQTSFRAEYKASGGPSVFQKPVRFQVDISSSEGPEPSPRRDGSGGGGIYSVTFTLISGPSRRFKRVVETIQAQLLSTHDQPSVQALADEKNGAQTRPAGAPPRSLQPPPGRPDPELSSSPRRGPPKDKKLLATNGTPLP

Sequence of PAK6 (human) (Q9NQU5 whole entry, looked up): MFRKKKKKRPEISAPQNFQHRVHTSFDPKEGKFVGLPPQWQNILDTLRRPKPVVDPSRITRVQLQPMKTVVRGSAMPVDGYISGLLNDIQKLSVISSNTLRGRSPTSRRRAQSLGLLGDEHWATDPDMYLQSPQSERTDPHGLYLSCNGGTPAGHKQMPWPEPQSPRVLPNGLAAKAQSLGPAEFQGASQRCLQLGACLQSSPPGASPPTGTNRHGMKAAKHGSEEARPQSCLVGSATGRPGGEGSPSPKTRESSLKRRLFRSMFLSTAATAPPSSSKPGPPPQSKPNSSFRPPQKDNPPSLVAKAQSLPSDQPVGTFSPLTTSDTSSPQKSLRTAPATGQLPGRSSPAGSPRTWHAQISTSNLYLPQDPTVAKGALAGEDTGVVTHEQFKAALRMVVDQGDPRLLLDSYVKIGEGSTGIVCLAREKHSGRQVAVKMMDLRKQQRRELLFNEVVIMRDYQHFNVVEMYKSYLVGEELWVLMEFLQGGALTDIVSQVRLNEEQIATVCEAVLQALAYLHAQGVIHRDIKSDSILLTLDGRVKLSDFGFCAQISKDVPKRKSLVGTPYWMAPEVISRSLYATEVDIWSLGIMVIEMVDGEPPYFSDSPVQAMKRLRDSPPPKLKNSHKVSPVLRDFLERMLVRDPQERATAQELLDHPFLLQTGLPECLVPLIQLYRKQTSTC

SMILES: Ic1cccc(CSc2nnc(-c3ccncc3)o2)c1
- residual activity [1]: 90%
- residual activity [2]: 105%
- residual activity [3]: 96.1%
- residual activity [4]: 74%
- residual activity [5]: 96.8%
- residual activity [6]: 95.4%
- residual activity [7]: 91.2%
- residual activity [8]: 102%
- residual activity [9]: 103%
- residual activity [10]: 97%
- residual activity [11]: 96.7%
- residual activity [12]: 102%
- residual activity [13]: 92.2%
- residual activity [14]: 107%
- residual activity [15]: 102%
- residual activity [16]: 92.3%
- residual activity [17]: 96.1%
- residual activity [18]: 103%
- residual activity [19]: 98.6%
- residual activity [20]: 94.3%
- residual activity [21]: 111%
- residual activity [22]: 105%
- residual activity [23]: 107%
- residual activity [24]: 92.8%
- residual activity [25]: 106%
- residual activity [26]: 102%
- residual activity [27]: 92.1%
- residual activity [28]: 96.1%
- residual activity [29]: 95.1%
- residual activity [30]: 94.1%
- residual activity [31]: 104%
- residual activity [32]: 91%
- residual activity [33]: 100%
- residual activity [34]: 78.1%
- residual activity [35]: 101%
- residual activity [36]: 99.6%
- residual activity [37]: 100%
- residual activity [38]: 98.3%
- residual activity [39]: 99.5%
- residual activity [40]: 87.4%
- residual activity [41]: 97.6%
- residual activity [42]: 101%

SMILES: c1ccc2c(-c3ccncc3)c[nH]c2c1
- residual activity [1]: 101%
- residual activity [2]: 109%
- residual activity [3]: 95.3%
- residual activity [4]: 104%
- residual activity [5]: 104%
- residual activity [6]: 90.5%
- residual activity [7]: 89.5%
- residual activity [8]: 94.8%
- residual activity [9]: 104%
- residual activity [10]: 100%
- residual activity [11]: 90.5%
- residual activity [12]: 93.5%
- residual activity [13]: 98.6%
- residual activity [14]: 100%
- residual activity [15]: 103%
- residual activity [16]: 104%
- residual activity [17]: 99%
- residual activity [18]: 103%
- residual activity [19]: 93.8%
- residual activity [20]: 100%
- residual activity [21]: 97.3%
- residual activity [22]: 97.2%
- residual activity [23]: 93.8%
- residual activity [24]: 93.2%
- residual activity [25]: 99.2%
- residual activity [26]: 91%
- residual activity [27]: 91%
- residual activity [28]: 98.3%
- residual activity [29]: 94.8%
- residual activity [30]: 78.9%
- residual activity [31]: 85.5%
- residual activity [32]: 97.9%
- residual activity [33]: 79.9%
- residual activity [34]: 94.2%
- residual activity [35]: 89%
- residual activity [36]: 95.6%
- residual activity [37]: 106%
- residual activity [38]: 96.6%
- residual activity [39]: 106%
- residual activity [40]: 98.2%
- residual activity [41]: 103%
- residual activity [42]: 90.3%

SMILES: O=C1Nc2ccc(Br)cc2/C1=C\c1cc2c([nH]1)CCCC2
- residual activity [1]: 84.5%
- residual activity [2]: 101%
- residual activity [3]: 97.8%
- residual activity [4]: 89.8%
- residual activity [5]: 97.3%
- residual activity [6]: 85.8%
- residual activity [7]: 85.5%
- residual activity [8]: 87.5%
- residual activity [9]: 87.9%
- residual activity [10]: 100%
- residual activity [11]: 93.9%
- residual activity [12]: 101%
- residual activity [13]: 90.5%
- residual activity [14]: 103%
- residual activity [15]: 44.1%
- residual activity [16]: 93.3%
- residual activity [17]: 105%
- residual activity [18]: 75.3%
- residual activity [19]: 70.4%
- residual activity [20]: 84.3%
- residual activity [21]: 77.3%
- residual activity [22]: 96.7%
- residual activity [23]: 95.2%
- residual activity [24]: 88.2%
- residual activity [25]: 106%
- residual activity [26]: 101%
- residual activity [27]: 94.2%
- residual activity [28]: 104%
- residual activity [29]: 27.7%
- residual activity [30]: 88.6%
- residual activity [31]: 82.3%
- residual activity [32]: 73.4%
- residual activity [33]: 91.9%
- residual activity [34]: 70.9%
- residual activity [35]: 72%
- residual activity [36]: 115%
- residual activity [37]: 87.9%
- residual activity [38]: 95.3%
- residual activity [39]: 17.7%
- residual activity [40]: 93.2%
- residual activity [41]: 36.1%
- residual activity [42]: 80.8%

SMILES: COc1cc2ncnc(Nc3ccc(OCc4ccccc4)cc3)c2cc1OC
- residual activity [1]: 99.5%
- residual activity [2]: 104%
- residual activity [3]: 98%
- residual activity [4]: 95.4%
- residual activity [5]: 99.4%
- residual activity [6]: 105%
- residual activity [7]: 106%
- residual activity [8]: 96.2%
- residual activity [9]: 91.6%
- residual activity [10]: 105%
- residual activity [11]: 104%
- residual activity [12]: 102%
- residual activity [13]: 93.1%
- residual activity [14]: 100%
- residual activity [15]: 101%
- residual activity [16]: 107%
- residual activity [17]: 90.1%
- residual activity [18]: 91.7%
- residual activity [19]: 90.2%
- residual activity [20]: 98.4%
- residual activity [21]: 109%
- residual activity [22]: 110%
- residual activity [23]: 94.3%
- residual activity [24]: 61%
- residual activity [25]: 105%
- residual activity [26]: 100%
- residual activity [27]: 105%
- residual activity [28]: 113%
- residual activity [29]: 94.8%
- residual activity [30]: 99.3%
- residual activity [31]: 37.9%
- residual activity [32]: 96%
- residual activity [33]: 95.1%
- residual activity [34]: 96.8%
- residual activity [35]: 100%
- residual activity [36]: 42.6%
- residual activity [37]: 107%
- residual activity [38]: 103%
- residual activity [39]: 65.4%
- residual activity [40]: 96.3%
- residual activity [41]: 106%
- residual activity [42]: 103%
